“Also recorded” adds a separate entry of the source. Where a SMILES comes first, the peptide text is derived from it. The star is where a group is joined. Cbz = O=C(OCc1ccccc1)*; OtBu = CC(C)(C)O*
Columns and labels:
allo-lymphocytes [1] = experiment: Allo-MLR with mixtures of PSI-treated and vehicle-treated DC; assay type: cell-based, human; conditions: judged from slope of proliferative response curves, PSI 1 μM
Procedure: FIG. 5. PSI pre-treated DC inhibit the growing ability of lymphocytes in allo-MLR. Mature DC was treated with PSI as described above. After washing, each DC was mixed to make different compositions: vehicle treated DC only (∘), ¼ number of PSI treated DC mixed with ¾ vehicle treated DC (●), ⅛ number of PSI treated DC mixed with […] vehicle treated DC (▪), or PSI treated DC only (▴). Graded number of each mixture and 10^5 cells of allo-lymphocytes were plated on a 96 well plate. Proliferation was determined at day 6 by ^3H-TdR uptake assay.
(§1) A means of detecting whether PSI-DC were generating inhibitory effects is to culture T cells with a mixture of PSI treated and untreated DC. […] Next we investigated whether exposure to PSI-DC would induce long term unresponsiveness in the T cells. T cells were exposed to normal or PSI-DC as previously described after which the T cells were collected and were treated with a DC for a second time and the proliferative response measured (FIG. 6). […] This would indicate that the effects of exposure to PSI-DC are prolonged and the T cells acquire a non-responsive or anergic state.

allo-lymphocytes [2] = experiment: Re-stimulation of allo-lymphocytes pre-cultured with PSI-treated DC; assay type: cell-based, human
Procedure: FIG. 6. Impaired response of allo-lymphocytes pre-cultured with PSI treated or non-treated DC. Lymphocytes were co-cultured with 1/10 number of PSI treated (●, ▴) or non-treated DC (∘,Δ). After 2 days, each DC were removed by CD83, CD86 coated plate. Lymphocytes were cultured for another 4 days using vehicle treated DC (∘,●), or PSI (1 μM) treated DC (Δ,▴). Proliferation was determined by ^3H-TdR uptake assay. (Each point represents mean+/−SEM from three separate experiments).
as §1
Further questions as to the mechanism of the lack of the T cell proliferative response were addressed. It could simply be due to lack of immunogenicity of the DC, or alternatively it could be due to the induction of a form of immunological tolerance or of immune regulation. The mechanism was analysed further by coculture experiments, adding PSI treated DC to untreated DC, and analysing the effect of the mixture on unprimed T cells in the MLR. […] Similar effects have been reported in a variety of tolerance models Zanders et al (1983) Nature 303, 625-627; Zanders et al (1985) J. Immunol. 15, 302-305; Park et al (1997) Eur. J. Immunol. 15, 302-305; and Waldmann & Cubbold (1998) Ann. Rev. Immunol. 16, 619-644 and so we asked whether PSI treated DC induced immunological tolerance. This was assessed by first exposing allogeneic T cells to PSI treated DC for 2 days, and then removing them, by panning with anti CD83 and anti CD86. […]

allo-lymphocytes [3] = experiment: Cytokine production of allo-lymphocytes co-cultured with PSI-treated DC (ELISA); assay type: cell-based, human
Procedure: FIG. 8. Cytokine production of allo-lymphocytes co-cultured with vehicle treated or PSI treated DC. Mature DC was treated with vehicle or PSI (1 μM) as described above. Allo-lymphocytes and each DC were plated at 2×10^5 cells per well on a 96 well plate and stimulated with PMA (10 nM) or left unstimulated for […].
(§2) Cells were pre-treated with vehicle or 1 μM of PSI for 4 h, or infected with adenoviral vectors for 2 h. PSI-treated DC were then directly used in experiments whereas infected cells were further cultured for 2 days to allow overexpression of the relevant protein to occur. 24 h after stimulation of the cells, culture supernatants were collected and kept frozen. Cytokine levels in cell culture supernatants were measured by standard 2 or 3 layer sandwich ELISA techniques using specific monoclonal and polyclonal antibodies for TNFα, IL-4, IL-6, IL-8, IL-12 and IFNγ. Antibody pairs and standards for these assays have been purchased from Pharmingen, with the exception of IL-12 reagents that were gifted from the Genetics Institute (Boston, USA).

mature DC [4] = experiment: Allogeneic MLR with PSI-treated DC, 3H-TdR uptake; assay type: cell-based, human; conditions: day 6
Procedure: FIG. 2. Immunostimulatory capacity of DC treated with the proteosome inhibitor Cbz-Ile-Glu(O-tert-bytyl)-Ala-leucinal (PSI). Mature DC was treated with PSI (0.1 μM: ▴), (0.5 μM: ▪), (1, μM: ●) or without PSI (∘) for 4 h. After wash, different numbers of each category of DC and […] of allo-lymphocytes were plated on a 96 well plate. Proliferation was determined at day 6 using ^3H-TdR uptake assay. (Each point represents mean+/−SEM from five separate experiments).
To assay the immunostimulatory capacity of non-irradiated or irradiated (3000 rad from a ^137Cs source) DC, uninfected, adenovirus-infected, LPS-treated or monocyte-conditioned medium-treated DC were cultured in graded doses with 1×10^5 of allogeneic elutriated T cells in quadruplicate in a 96-well flat-bottom microtiter plate (Falcon). Proliferation was measured on day 5 by thymidine incorporation after a 16 h pulse with [^3H] thymidine (0.5 μCi/well; Amersham Life Science, UK).
(§3) PSI is an inhibitor of proteosome activity and as such is capable of inhibiting induced IκB degradation and subsequent NF-κB activation. We used PSI to examine the function of NFκB in dendritic cell (DC) activity particularly in relation to antigen presentation and activation of T cells. We have previously shown that PSI is capable of inhibiting NFκB activation at concentrations up to 1 μM. To test the effect of PSI on DC viability mature DC were incubated with concentrations of PSI, ranging from 0.1 μM to 5 μM. […] To assess the role of NFκB in DC function, mature DC were incubated with 0.3 μM, 0.5 μM or 1 μM PSI for […] and the cells washed. As PSI is an activated peptide that binds irreversibly to the proteosomes, the function of the DC can be assessed over the 6 day period of the MLR despite the short period of drug exposure.

mature DC [5] = experiment: Cell viability of DC treated with PSI, propidium iodide staining (FACS); assay type: cell-based, human; conditions: PSI for 4 h, analysed 6 days after treatment
Procedure: FIG. 1. Cell viability of DC treated with PSI. Mature DC was either left untreated, or treated with various doses of PSI for 4 h. After wash, cells were cultured in RPMI 1640 supplemented as described without monocyte condition medium. 6 days after treatment, cells were resuspended in PBS containing 10 μg/ml. Of propidium iodide PI and analysed on FACS scan.
as §3

allo-lymphocytes [6] = experiment: Surface antigens on allo-lymphocytes cultured with PSI-treated DC (FACScan); assay type: cell-based, human
Procedure: FIG. 7. […] Lymphocytes were cultured for 6 days as the same conditions with allo-MLR experiment using vehicle treated DC (green line), or PSI (1 μM) treated DC (red line). Each lymphocytes were phenotyped with MoAbs, CD3, CD25 (PE conjugated; Pharmingen), (CD54) (PE conjugated; Serotec), CD50 (FITC conjugated; Serotec) and analysed by FACScan.
(§4) For FACS staining, cells were first harvested. For adherent cells where surface receptors need to be intact, a warm 2% EDTA in PBS solution was used for 20 min at 37° C. After cells were in solution, they were washed once and then resuspended in ice-cold FACS washing buffer. All subsequent incubations were performed at 4° C. For each analysis, 5×10^5 cells were incubated with the relevant antigen-specific antibody or isotype control for 30 min and then washed twice with FACS washing buffer. Cells were then examined by flow cytometry. cells were ready for analysis on a FACScan flow cytometer (Becton and Dickinson) by using the CellQuest (Becton Dickinson). Directly conjugated monoclonal antibodies to HLA-DR, HLA-A,B,C, CD80, CD86, CD3, CD14 and CD25 were purchased by Pharmingen, San Diego, USA).

NFκB = conditions: previously shown by the inventors; cited from earlier work
mature DC [7] = experiment: Surface antigen expression on PSI-treated DC (FACScan); assay type: cell-based, human
Procedure: FIG. 3. Effect of PSI on the expression of surface antigens was studied using monoclonal antibodies, HLA-DR, CD86 (PE conjugated); Pharmingen, San Diego, Calif.). on day 6 after PSI treatment, populations of untreated (green line), PSI (0.1 μM) treated (blue dotted line), PSI (1 μM) treated (red dotted line) were phenotyped with the MoAbs listed above and analysed on FACScan (Becton Dickinson).
as §4

mature DC [8] = experiment: Cytokine production of DC treated with PSI (ELISA); assay type: cell-based, human; conditions: PSI 1 μM
Procedure: FIG. 9. Cytokine productions of DC treated with vehicle or PSI. Mature DC was treated with vehicle or PSI (1 μM) as described above. Each DC and allo-lymphocytes were plated at 2×10^5 cells per well on a 96 well plate and stimulated with PMA (10 nM) or left unstimulated for 48 hr. Supernatants were analysed for IL-6, IL-8, IL-12 and TNFα by ELISA.
as §2

[9] = 6 days with PSI (1 μM) treated DC
[10] = 1 μM PSI, 6 days after treatment

CC[C@H](C)[C@H](NC(=O)OCc1ccccc1)C(=O)N[C@@H](CCC(=O)OC(C)(C)C)C(=O)N[C@@H](C)C(=O)N[C@H](C=O)CC(C)C [PSI, Cbz-Ile-Glu(O-tert-bytyl)-Ala-leucinal] (Cbz-IE(OtBu)AL-aldehyde)
reduction of proliferative response by ⅛ or ¼ PSI-DC mixed with untreated DC (allo-lymphocytes [1]): 3-5 fold | response of T cells stimulated with PSI-DC prior to normal DC (allo-lymphocytes [2]; 2 days PSI-DC, then 4 days normal DC): unable to respond; also recorded: lack of response | response of T cells exposed to PSI-DC on the second round after normal DC (allo-lymphocytes [2]; PSI 1 μM): failed to proliferate | response of T cells to two rounds of PSI-DC (allo-lymphocytes [2]; PSI 1 μM): did not respond | IFNγ production by T cells in response to PSI-DC (allo-lymphocytes [3]; PSI 1 μM): not produced | IL-2 production by T cells in response to PSI-DC (allo-lymphocytes [3]; PSI 1 μM): not produced | IL-4 production by T cells in response to PSI-DC (allo-lymphocytes [3]; PSI 1 μM): unaffected; also recorded: not changed | inhibition of IFNγ production of T cells exposed to PSI treated DC (allo-lymphocytes [3]; PSI treated DC): more than 90% | inhibition of IL-2 production of T cells exposed to PSI treated DC (allo-lymphocytes [3]; PSI treated DC): more than 90% | T cell proliferation in allogeneic MLR (mature DC [4]; DC pretreated with PSI 0.1 μM): no detectable effect | T cell proliferation in allogeneic MLR (mature DC [4]; DC pretreated with PSI 0.5 μM): failure of the T cells to proliferate | T cell proliferation in allogeneic MLR (mature DC [4]; DC pretreated with PSI 1 μM): failure of the T cells to proliferate | PSI concentrations showing some toxicity (propidium iodide staining) (mature DC [5]): > 5 µM | yields of T cells after culture with PSI treated DC (allo-lymphocytes [6]; 6 days culture): lower | CD3 expression on T lymphocytes (allo-lymphocytes [6]; [9]): reduced expression | CD11a (LFA-1) expression on T lymphocytes (allo-lymphocytes [6]; [9]): only marginally reduced; also recorded: some reduction | CD25 expression on T lymphocytes (allo-lymphocytes [6]; [9]): virtually abolished | CD54 (ICAM-1) expression on T lymphocytes (allo-lymphocytes [6]; [9]): reduced to a degree similar to CD3; also recorded: some reduction | concentrations at which PSI inhibits NFκB activation (NFκB): up to 1 μM | CD86 expression on DC (mature DC [7]; [10]): reduced, to virtually background levels; also recorded: marked reduction | HLA-DR expression on DC (mature DC [7]; [10]): major reduction; also recorded: marked reduction | HLA-DR expression on DC (mature DC [7]; 0.1μ PSI, 6 days after treatment): minimal effect | CD80 expression on DC (mature DC [7]; PSI-treated DC): downregulation | IL-6 expression from PSI-DC during the MLR (mature DC [8]): to a lesser extent, IL-6 expression was inhibited; also recorded: not changed | IL-8 production from PSI-DC during the MLR (mature DC [8]): unaffected; also recorded: not changed | IL-12 production by PSI treated DC (mature DC [8]): Reductions | TNF expression from PSI-DC during the MLR (mature DC [8]): inhibited; also recorded: Reductions
